Consider 5 compounds from patent US8318446B2, “DNA-damage-induced proteolysis” (California Institute of Technology, priority 2008, dated 2012).

Read-outs that look alike come from different tables or passages of the source.

In one test the test system is endogenous Htt. Put plainly: Etoposide-induced Htt proteolysis in MESC2.10 neurons, Western blotting with anti-Htt mAb 2166. Particulars: pre-incubation 1 hr prior to 10 μM etoposide; sodium salicylate 5 mg/ml, caspase inhibitors 20 μM. The format is cell-based, human. From the text: Extracts were examined for Htt by Western blotting. […] Fold changes for full-length Htt levels were obtained by measuring the band intensity in each lane, normalized to tubulin and compared to non-treated control.
EGFP-lentivirus was used a control (C). […] Second and third panels show staining for Bcl-xL and pro-caspase-3, respectively. IKKγ levels were used as a loading control.
(§1) Neurons were harvested and separated into cytoplasmic and nuclear fractions using the NE-PER kit (PIERCE) according to instructions. For most experiments, ˜120 μg of lysate were used for SDS-PAGE and Western blotting with the indicated antibodies. Reactive bands in Western blots were detected by enhanced chemiluminescence (ECL) using a gel documentation system.
Background: Immunoblotting shows a protein as a band on a membrane.

In another test the test system is IKKα. Kind of test: Activation of IKKα in MESC2.10 neurons expressing Flag-tagged IKKα, immune kinase assay. The following applies: neurons starved for growth factors 8 hours; IGF-1 20 ng/ml, netrin 100 ng/ml. The test is classed as cell-based, human. The method, then:
IGF-1 was added at 20 ng/ml for the indicated time.
Netrin was added at 100 ng/ml for the indicated time.
The ability of a molecule to increase IKKα activation can be measured using assays that are well known in the art. For example and without limitation, IKKα activators can be identified using immune kinase assays and gene reporter assay. In an example of immune kinase assays, MESC2.10 neurons engineered to express a Flag-tagged IKKα are starved for growth factors for 8 hours. Candidate IKKα activators are added, respectively, to the starved MESC2.10 neurons for desired period of time. Neurons are harvested and cytoplasmic extracts are used to immunoprecipitate IKKα using agarose beads coupled to anti-Flag antibody. Complexes are assayed for the ability to phosphorylate a recombinant substrate GST-IκBα in the presence of radioactive […]. Products are examined by SDS-PAGE followed by autoradiography.
MESC2.10 neurons engineered to express a Flag-tagged IKKα were starved for growth factors for 8 hours. 20 ng/ml insulin-like growth factor-1 (IGF-1) and 100 ng/ml netrin were added, respectively, to the starved MESC2.10 neurons for the indicated time. […] Fold changes of IKK activity were quantified by measuring the band intensity using Image J, and compared to non-treated neurons.

The target of another test is T1, IKKβ (Homo sapiens, UniProt O14920).
T1 sequence (O14920 1-756): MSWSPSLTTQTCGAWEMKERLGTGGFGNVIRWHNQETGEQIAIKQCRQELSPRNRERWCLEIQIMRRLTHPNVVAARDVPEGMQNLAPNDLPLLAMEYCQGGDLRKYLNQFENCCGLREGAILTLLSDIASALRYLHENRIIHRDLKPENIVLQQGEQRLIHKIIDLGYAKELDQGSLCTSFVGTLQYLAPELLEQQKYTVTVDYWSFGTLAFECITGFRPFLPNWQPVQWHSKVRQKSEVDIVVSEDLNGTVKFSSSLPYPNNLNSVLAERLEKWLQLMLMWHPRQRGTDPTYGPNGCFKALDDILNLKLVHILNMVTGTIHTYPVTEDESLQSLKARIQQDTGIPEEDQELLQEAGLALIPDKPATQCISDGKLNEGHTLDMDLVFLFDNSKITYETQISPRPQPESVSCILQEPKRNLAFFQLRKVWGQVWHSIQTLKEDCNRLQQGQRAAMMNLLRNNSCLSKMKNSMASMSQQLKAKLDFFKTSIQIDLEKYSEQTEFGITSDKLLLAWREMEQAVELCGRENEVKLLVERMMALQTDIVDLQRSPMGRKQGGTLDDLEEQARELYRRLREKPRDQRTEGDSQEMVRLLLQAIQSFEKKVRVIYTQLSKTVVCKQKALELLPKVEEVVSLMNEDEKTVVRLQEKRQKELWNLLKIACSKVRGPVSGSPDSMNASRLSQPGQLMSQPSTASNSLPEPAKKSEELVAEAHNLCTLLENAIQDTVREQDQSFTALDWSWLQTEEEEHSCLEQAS
The following applies: cited from earlier work.

For test [1], the system named is Bcl-xL. Particulars: Hdh^Q111/Q111 neurons; NaSal 5 mg/ml 1 hour prior to 10 μM etoposide. The method, then: as §1
The test system of the next test is caspase-6. The test is classed as cell-based, human. The following applies: etoposide 6 hrs; VEID-p-nitroanaline substrate; sodium salicylate 5 mg/ml 1 hour prior.
A further test concerns Htt. Kind of test: γ-irradiation-induced Htt cleavage in MESC2.10 neurons. The test is classed as cell-based, human. The following applies: 5 Gy, 6 hours; sodium salicylate 5 mg/ml 1 hour prior to irradiation. The method, then: Cells were irradiated with 5 Gy and further incubated for the indicated time. Sodium salicylate (NaSal, lane 5) was added at a concentration of 5 mg/ml 1 hour prior to irradiation and incubated for 6 hours. […] Lanes 7 and 8 represent MESC2.10 neurons transduced with an IKKβ shRNA lentivirus (FIG. 4A) and irradiated with 5 Gy and incubated for 6 hours. […] Tubulin was used as a loading control
To confirm that Htt cleavage is induced by DNA damage and not other, secondary effects of etopoisde, we examined whether DNA damage induced by γ-irradiation of neurons could have a similar effect on Htt cleavage. […] The difference may be due to rapid induction of double stranded DNA breaks by irradiation.

The subject of test [2] is Bcl-xL. Put plainly: Bcl-xL level in extracts of MESC2.10 neurons, Western blotting. The test is classed as cell-based, human. The following applies: MESC2.10 neurons pre-treated or transduced, then etoposide. The source says:
FIG. 6A is a western blot showing the expression of Bcl-XL. Extracts of control and etoposide-treated MESC2.10 neurons were examined for Bcl-xL by Western blotting. […] Fold changes were normalized to the intensity of loading control, and compared to that of untreated control neurons (lane 5).

The target of a further test is recombinant IKKβ (Homo sapiens, UniProt O14920). Particulars: full-length Bcl-xL, 32P-γ-ATP, 30 min at 30° C.
In another test the test system is caspase-3. The format is cell-based, human. Particulars: etoposide 6 hrs; DEVD-p-nitroanaline substrate; sodium salicylate 5 mg/ml 1 hour prior.

Experimental for recombinant IKKβ: Active recombinant IKKα or IKKβ were tested for the ability to phosphorylate Bcl-xL. The kinase assay was performed using recombinant Bcl-xL as a substrate. Products were visualized by autoradiography. IκBα was used as a positive control substrate for IKKα.
To determine IKKα activity, lyastes were first depleted of IKKβ complexes using 4 μg of anti-IKKγ and anti-IKKβ antibodies coupled to protein G. The depleted lysates were used to isolate IKKα complexes with 2 μg of anti-IKKα antibody. GST-IκBα was used as a substrate to measure kinase activity. To examine whether IKKs phosphorylate Bcl-xL, 0.5 μg of either IKKα or IKKβ were incubated with 1 μg of full-length Bcl-xL in the presence of 32P-γ-ATP for 30 min at 30° C. GST protein was used as a negative control. All kinase products were examined by SDS-PAGE and autoradiography.
The possibility that activated IKKβ phosphorylates Bcl-xL was tested. To avoid contamination with other neuronal kinases that may co-immunoprecipitate with IKKβ, recombinant IKKs were used for in vitro kinase assays with Bcl-xL as the substrate.

For Ac-VEID-aldehyde, in the test with endogenous Htt, the “effect on etoposide-induced Htt proteolysis” value is on record as “no significant effect”.
As to “IGF-1: insulin-like growth factor-1, IKKα activator”, in the test on IKKα, the “activation of IKKα” value is listed as “activates IKKα”.
Take Ac-DEVD-CHO: the “effect on etoposide-induced Htt proteolysis” value in the test on endogenous Htt is given as “reduced Htt proteolysis”.
Turning to arsenite, the IKKβ activation result at IKKβ is listed as “potently inhibited IKKβ activation”.
Consider `O=C([O-])c1ccccc1O.[Na+]` [sodium salicylate], for which the “effect on etoposide-induced Htt proteolysis” value with endogenous Htt is “blocks etoposide-induced Htt proteolysis”. The “effect on etoposide-induced reduction of Bcl-xL” value in the test with Bcl-xL [1] was “prevented”; in the test on Bcl-xL [2] it was “did not affect Bcl-xL”. Besides, in the test with caspase-6, the “caspase-6 activity in neuronal extracts” value is reported as “lowered the etoposide-induced activation of caspases”. Further, the “effect on Htt cleavage induced by γ-irradiation” value in the test with Htt was “blocked Htt cleavage”. Besides, the “phosphorylation of Bcl-xL by IKKβ” value at recombinant IKKβ is “prevented the reaction”. Besides, the “caspase-3 activity in neuronal extracts” value in the test with caspase-3 is listed as “lowered the etoposide-induced activation of caspases”.
